{"source": "patent US8703750B2", "about": "“Mixtures and methods for the induction of resistance in plants” (priority 2004, dated 2014)", "key": {"[1]": {"tested_on": "Plasmopara viticola", "conditions": "in vivo", "protocol": "After remaining 7 days in a conditioned environment, the plants were infected on the lower side with an aqueous suspension of Plasmorpara viticola spores (200,000 spores per cm^3).\n(§1) The plants were kept in a humidity saturated environment, at 21° C., for the incubation period of the fungus and, at the end of this period (7 days), the fungicidal activity is evaluated according to an evaluation percentage scale from 100 (healthy plant) to 0 (completely infected plant).\nE is the expected fungicidal activity, in the absence of synergetic effects, from a blend obtained by mixing g.x of the compound X with g.y of the compound Y;\nx is the activity of compound X when used alone at a dose of g.x;\ny is the activity of compound Y when used alone at a dose of g.y.\nWhen the fungicidal activity found experimentally is greater than the value of E, said activity should be considered as being a synergetic effect."}, "[2]": {"tested_on": "cultivar Burley tobacco plants", "conditions": "in vivo", "protocol": "Leaves of cultivar Burley tobacco plants, grown in vases, in a conditioned environment (20±1° C., 70% relative humidity), were treated by spraying both sides of the leaves with the blends in question dispersed in an aqueous solution containing 0.3% of tween 20.\nUndesired effects refer to the appearance of necrosis or leaf decolouring."}, "[3]": {"tested_on": "Peronospora tabacina", "test": "Control of Peronospora Tabacina on tobacco in preventive leaf application (greenhouse test)", "assay_type": "in vivo", "protocol": "After remaining 7 days in a conditioned environment, the plants were infected on the lower side with an aqueous suspension of Peronospora Tabacina spores (200,000 spores per cm^3).\nas §1, with “After remaining 24 hours” for “The plants were kept”, “C., the plants were transferred to another conditioned environment” for “C.,”"}, "[4]": {"tested_on": "cultivar Borlotto of Vigevano bean plants", "assay_type": "in vivo, bean plant", "set-up": "key: 100 = healthy plant, 0 = completely necrotic/decoloured", "protocol": "After 7 days in a conditioned environment, the intensity of the necrosis or leaf decolouring is evaluated with an evaluation scale from 100 (healthy plant) to 0 (plant completely infected with necrosis or decoloured)."}, "[5]": {"tested_on": "cultivar Merlot vines", "test": "Undesired effects (necrosis or leaf decolouring) on vines in the Plasmopara viticola greenhouse test", "conditions": "in vivo", "experimental": "Leaves of cultivar Merlot vines, grown in vases, in a conditioned environment (20±1° C., 70% relative humidity), were treated by spraying both sides of the leaves with the blends in question dispersed in an aqueous solution containing 0.3% of tween 20."}, "[6]": {"conditions": "125 ppm of each component, 7 days after leaf spraying, bean plant"}}, "note": "Read-outs that look alike come from different tables or passages of the source."}
{"compound": "titanium dioxide [TiO2]", "values": [{"measurement": "Activity (y)", "setting": "[1]", "result": 24}, {"measurement": "Undesired effects", "setting": "[2]", "result": 0}, {"measurement": "Activity (y)", "setting": "[3]; Table 5, compound alone at dose g.y ppm Equivalent Metal: TiO2 24, FeSO4 28, ZnSO4 33, CuSO4 32, ZnO 33", "result": 5}]}
{"compound": "[Cu+2].[OH-].[OH-]", "note": "[Cu hydroxide, cuprum hydroxyde]", "values": [{"measurement": "Activity (y)", "setting": "[1]", "result": 34}]}
{"compound": "silicic acid", "values": [{"measurement": "Activity (y)", "setting": "[1]", "result": 14}]}
{"compound": "[O]=[Zn]", "note": "[ZnO, zinc oxide]", "values": [{"measurement": "Activity (y)", "setting": "[1]", "result": 30}, {"measurement": "Activity (y)", "setting": "[3]; in vivo", "result": 15}]}
{"compound": "O=C(O)c1ccccc1[O-].O=C(O)c1ccccc1[O-].[Cu+2]", "note": "[Cu^2+ SA, copper (II) salt of salicylic acid]", "values": [{"measurement": "Leaf decolouring", "setting": "[4]; in vivo", "result": 5}, {"measurement": "Leaf necrosis", "setting": "[4]; in vivo", "result": 55}]}
{"compound": "O=S(=O)([O-])[O-].[Zn+2]", "note": "[ZnSO4, zinc sulphate]", "values": [{"measurement": "Activity (y)", "setting": "[1]", "result": 22}, {"measurement": "Activity (y)", "setting": "[3]; in vivo", "result": 20}]}
{"compound": "copper phthalocyanine [Cu (II) Phthalocyanine]", "values": [{"measurement": "Activity (y)", "setting": "[1]", "result": 10}, {"measurement": "Undesired effects", "setting": "[5]", "result": 0}]}
{"compound": "O=S(=O)([O-])[O-].[Fe+2]", "note": "[FeSO4, iron sulphate]", "values": [{"measurement": "Activity (y)", "setting": "[1]", "result": 40}, {"measurement": "Activity (y)", "setting": "[3]; in vivo", "result": 15}]}
{"compound": "O=C(O)c1cc(Cl)nc(Cl)c1", "note": "[INA, 2,6-dichloroisonicotinic acid, reference compound]", "values": [{"measurement": "Leaf decolouring", "setting": "[4]; [6]", "result": 10}, {"measurement": "Leaf necrosis", "setting": "[4]; [6]", "result": 50}]}
{"compound": "FeNH4SO4", "values": [{"measurement": "Activity (y)", "setting": "[1]", "result": 18}]}
{"compound": "O=S(=O)([O-])[O-].[Cu+2]", "note": "[CuSO4, copper sulphate]", "values": [{"measurement": "Activity (y)", "setting": "[1]", "result": 48}, {"measurement": "Activity (y)", "setting": "[3]; in vivo", "result": 45}]}
{"compound": "O=c1ccc2cc(O[C@@H]3O[C@H](CO)[C@@H](O)[C@H](O)[C@H]3O)c(O)cc2o1", "note": "[Esculine, esculin]", "values": [{"measurement": "Activity (y)", "setting": "[1]", "result": 10}]}
{"compound": "O=C(O)c1ccccc1[O-].O=C(O)c1ccccc1[O-].[Cu+2]", "note": "[Cu^2+SA2, copper (II) salt of salicylic acid]", "values": [{"measurement": "Leaf decolouring", "setting": "[4]; in vivo", "result": 5}, {"measurement": "Leaf necrosis", "setting": "[4]; in vivo", "result": 42}]}
{"compound": "[Fe+2].c1ccc2c(c1)-c1nc-2nc2[n-]c(nc3nc(nc4[n-]c(n1)c1ccccc41)-c1ccccc1-3)c1ccccc21", "note": "[Fe (II) phthalocyanine, iron phthalocyanine]", "values": [{"measurement": "Activity (y)", "setting": "[1]", "result": 14}]}
{"compound": "O=C([O-])[C@H](O)[C@@H](O)[C@H](O)[C@H](O)CO.O=C([O-])[C@H](O)[C@@H](O)[C@H](O)[C@H](O)CO.[Fe+2]", "note": "[Fe (II) gluconate]", "values": [{"measurement": "Activity (y)", "setting": "[1]", "result": 28}]}
{"compound": "[Cl-].[Cl-].[Cu+2].[Cu+2].[Cu+2].[Cu+2].[OH-].[OH-].[OH-].[OH-].[OH-].[OH-]", "note": "[Tetracopper oxychloride]", "values": [{"measurement": "Activity (y)", "setting": "[1]", "result": 28}]}
{"compound": "Fe(III) glutamate", "values": [{"measurement": "Activity (y)", "setting": "[1]", "result": 16}]}
{"compound": "O=c1ccc2ccccc2o1", "note": "[Cumarine]", "values": [{"measurement": "Activity (y)", "setting": "[1]", "result": 10}]}
{"compound": "[C-]#N.[C-]#N.[C-]#N.[C-]#N.[C-]#N.[C-]#N.[C-]#N.[C-]#N.[C-]#N.[C-]#N.[C-]#N.[C-]#N.[C-]#N.[C-]#N.[C-]#N.[C-]#N.[C-]#N.[C-]#N.[Fe+2].[Fe+2].[Fe+2].[Fe+3].[Fe+3].[Fe+3].[Fe+3]", "note": "[Prussian blue]", "values": [{"measurement": "Activity (y)", "setting": "[1]", "result": 13}]}
{"compound": "CC(N)CC(=O)O", "note": "(stereo not drawn) [BABA, β-aminobutyric acid, reference compound]", "values": [{"measurement": "Leaf decolouring", "setting": "[4]; [6]", "result": 15}, {"measurement": "Leaf necrosis", "setting": "[4]; [6]", "result": 30}]}
{"compound": "O=C1NS(=O)(=O)c2ccccc21", "note": "[Saccharin, saccharin]", "values": [{"measurement": "Activity (y)", "setting": "[1]", "result": 30}]}
{"compound": "[Cl-].[Cu+2].[Cu+2].[OH-].[OH-].[OH-]", "note": "[Cu oxychloride, cuprum oxychloride]", "values": [{"measurement": "Activity (y)", "setting": "[1]", "result": 18}]}
